This passage reports Ki results from ChEMBL document CHEMBL1129849, “Synthesis and evaluation of delta lactams as nonpeptide HIV-protease inhibitors” (Bioorg Med Chem Lett, 1997).

This test addresses Human immunodeficiency virus type 1 protease (Human immunodeficiency virus 1, UniProt Q72874). Put plainly: Compound was tested for the inhibitory activity against HIV-protease.
On to `O=C1[C@@H](Cc2ccccc2)C[C@@H](O)[C@@H](Cc2ccccc2)N1Cc1ccccc1`, for which the Ki is 9.4 µM.
For the molecule `O=C1N[C@H](CCc2ccccc2)[C@@H](O)[C@@H](Cc2ccccc2)N1Cc1ccccc1`, the affinity corresponds to a Ki of 0.066 µM.
In the case of `O=C1N(Cc2ccccc2)C[C@H](O)[C@@H](Cc2ccccc2)N1Cc1ccccc1`, the Ki was 11 µM.
For the molecule `O=C1N(Cc2ccccc2)C[C@@H](O)[C@@H](Cc2ccccc2)N1Cc1ccccc1`, the Ki is 0.0025 µM.
